Experimental findings from patent publication US10479808B1, “Bisphosphonate-based coordination complexes as enhanced pharmaceutical formulations and method of preparing the same” (University of Puerto Rico, priority 2018, dated 2019) are described below.

Each structure is given as a SMILES string. “Also recorded” adds a separate entry of the source.

Holding throughout (assay type): physicochemical
The nature of data set [1]: Dissolution profile in FaSSGF (pH 1.60), ALEN-Cu complexation, UV-Vis. The following applies: for order of structural stability of the complexes: FaSSGF pH 1.60, from dissolution profiles.
Data set [2] in a line: Dissolution profile in PBS (pH 7.40), ALEN-Cu complexation, UV-Vis. The following applies: for order of structural stability of the complexes: PBS pH 7.40, from dissolution profiles.
A short description of data set [3]: Thermal stability by thermal gravimetric analysis (TGA) under N2. The protocol:
Thermographs were recorded in a TGA Q500 (TA Instruments Inc.). Thermograph of the BP and pBioCCs were collected using a temperature range of 30-700° C. at 5° C./min under a N2 gas purge. In all cases, ˜10 mg of powder sample was thermally treated. Data was analyzed with TA Universal Analysis software version 4.3A.
It was expected that the thermograph of each pBioCCs consists of at least two mayor decomposition profiles one at lower temperature representing the loss of coordinated or lattice water molecules, and another at higher temperature which accounts for the thermal combustion of the organic moiety, the BP ligand, in this case ALEN. A third decomposition event might be observed above 350° C., due to the thermal degradation of the metal/metal oxide.

Turning to `NCCCC(O)(P(=O)(O)O)P(=O)(O)O` [ALEN, Alendronate sodium trihydrate, reference compound], the “time to reach maximum release” value in data set [1] (FaSSGF pH 1.60, 37 °C) worked out at 10 s; in data set [2] (PBS pH 7.40, 37 °C), 10 min.

In the case of `NCCCC(O)(P(=O)([O-])O)P(=O)([O-])O.O.[Ca+2]` [ALEN-Ca form I], the “order of structural stability of the complexes” value was “less stable; also recorded: ALEN-Ca form I<ALEN-Ca form II<ALEN-Zn form I<ALEN-Mg<ALEN-Zn form II” in data set [1] and “ALEN-Mg<ALEN-Ca form I<ALEN-Ca form II<ALEN-Zn form I<ALEN-Zn form II” in data set [2]. Further, the “thermal stability (in words)” value in data set [3] is given as “high thermal stability”.

For the compound `NCCCC(O)(P(=O)([O-])O)P(=O)([O-])O.O.[Zn+2]` [ALEN-Zn form I], the “order of structural stability of the complexes” value in data set [1] was “ALEN-Ca form I<ALEN-Ca form II<ALEN-Zn form I<ALEN-Mg<ALEN-Zn form II”; in data set [2] it was “ALEN-Mg<ALEN-Ca form I<ALEN-Ca form II<ALEN-Zn form I<ALEN-Zn form II”. In addition, the “thermal stability (in words)” value in data set [3] is recorded as “high thermal stability”.
